Data published in BigSolDB 2.1.

CC(=O)c1c(C)c([N+](=O)[O-])c(C(C)(C)C)c([N+](=O)[O-])c1C
solubility (mole fraction)
Conditions	273.15 K	278.15 K	283.15 K	288.15 K	293.15 K	298.15 K	303.15 K	308.15 K	313.15 K
in ethanol	0.0016	0.00198	0.00241	0.00295	0.00354	0.00426	0.00512	0.00619	0.0074
in ethyl acetate	0.055	0.0641	0.0742	0.0852	0.0954	0.111	0.122	0.139	0.156
in methanol	0.00108	0.00128	0.00157	0.00187	0.00225	0.00272	0.00326	0.00387	0.00458
in n-butanol	0.0022	0.00286	0.00368	0.00449	0.00533	0.00666	0.00812	0.00972	0.012
